The values below come from patent publication US20070185183A1, “Indolinesulphanilic acid amides as ppar-delta modulators” (Bayer HealthCare AG, priority 2003, published 2007).

In this assay the target is T1, human PPARδ receptor (Homo sapiens, UniProt Q03181).
T1 construct: expressed in transfected cells
T1 sequence (Q03181 211-439 limits assumed): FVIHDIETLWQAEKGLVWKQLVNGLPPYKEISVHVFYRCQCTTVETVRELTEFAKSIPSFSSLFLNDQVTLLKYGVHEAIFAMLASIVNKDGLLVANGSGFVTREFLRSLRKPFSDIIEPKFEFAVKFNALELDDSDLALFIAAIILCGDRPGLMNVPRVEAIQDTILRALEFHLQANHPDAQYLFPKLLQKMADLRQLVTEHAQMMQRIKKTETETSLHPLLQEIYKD
In words: Cellular transactivation assay (GAL4-PPARδ chimera, luciferase reporter). The class given is cell-based. The following applies: GAL4-PPARδ chimera stably expressed in CHO cells, 24 hours stimulation. The text has this:
A cellular assay is used to identify activators of the peroxisome proliferator-activated receptor delta (PPAR-delta).
Since mammalian cells contain different endogenous nuclear receptors which may complicate an unambiguous interpretation of the results, an established chimera system is used in which the ligand binding domain of the human PPARδ receptor is fused to the DNA binding domain of the yeast transcription factor GAL4. The resulting GAL4-PPARδ chimera is co-transfected and stably expressed in CHO cells having a reporter construct.
The GAL4-PPARδ expression construct contains the ligand binding domain of PPARδ (amino acids […]), which is PCR-amplified and cloned into the vector pcDNA3.1. This vector already contains the GAL4 DNA binding domain (amino acids 1-147) of the vector pFC2-dbd (Stratagene). […]
CHO (chinese hamster ovary) cells are sown in CHO-A-SFM medium (GIBCO), supplemented by 2.5% foetal calf serum and 1% penicillin/streptomycin (GIBCO), at a cell density of 2×10^3 cells per well in a 384-well plate (Greiner). […] After a stimulation period of 24 hours, the luciferase activity is measured using a video camera. The relative light units measured give, as a function of the substance concentration, a sigmoidal stimulation curve. The EC50 values are calculated using the computer program GraphPad PRISM (Version 3.02).

By EC50 is commonly meant the concentration needed to bring the measured effect to its halfway point. Higher therefore signals lower potency in that assay. `CN(CC(=O)O)c1ccc(S(=O)(=O)N2CC(C)(C)c3cc(-c4ccc(C(F)(F)F)cc4)ccc32)cc1` [Working Example 1, N-[4-({3,3-Dimethyl-5-[4-(trifluoromethyl)phenyl]-2,3-dihydro-1H-indol-1-yl}sulphonyl)phenyl]-N-methylglycine] had an EC50 of 8.5 nM.
